{
  "source": "patent US20090076092A1",
  "about": "“METHOD FOR DISRUPTING REPRODUCTIVE PERFORMANCE OF ARTHROPODS” (priority 2006, published 2009)",
  "key": {"[1]": {"test_system": "diamondback moth (Plutella xylostella)", "test": "Test G: number of eggs (fecundity) of adult diamondback moth", "type": "in vivo", "settings": "10 ppm, control itself gave very few eggs", "text": "For evaluating the reproductive performance effects on diamondback moth (Plutella xylostella), a minimum of 120 larvae of diamondback moth of each sex were used. Male and female individuals of late instar larvae were separated and caged in individual containers containing Chinese kale. Male diamondback moths were identified by a white dot on the abdomen at the late instar larval stage. When pupae emerged, each pupa was caged separately until it emerged as adult.\n(§1) In addition, a control without test compound was included.\nGroups of 40 newly emerged (<24 hours) moths of the same sex were placed inside a meshed cage. The caged adult moths were then sprayed with the test solution, using a CO2 backpack sprayer at 500 L/Ha. For the control treatment, the adults were sprayed with water at a similar spray volume. The groups of treated individuals were then transferred into a clean container with a source of adult diet (i.e. a cotton wick soaked in 10% sucrose solution). Separate containers were used for different groups of treated insects. One day after treatment, the numbers of live, moribund and dead adults were counted. One live treated male and one live treated female were placed together in a copulation cage, which was a 300 mL clear plastic cup covered with nylon screen supplied with an adult diet source of 10% sucrose solution.\nEach pair of virgin adults was a replicate, and each treatment consisted of 10 to 20 replicates. Every day each pair of moths was moved to a new cup supplied with a diet of 10% sucrose solution.\nThe number of eggs laid per female moth was counted daily during the two days when the female moths actively produced viable eggs. The results, listed in Table G, indicate that no meaningful comparative information can be inferred, as the even the Control provided very few eggs per female moth; this indicates a systemic reproduction problem from unknown causes. However, had the Control worked, we expect to see the reproductive performance effects on diamondback moth."}, "[2]": {"test_system": "green peach aphid (Myzus persicae Sulzer)", "test": "Test B: nymph production by green peach aphid after 24 hours exposure on treated radish plants", "type": "in vivo", "settings": "for Living (%) / On plant (%): 1 DAT; for Living (%): all aphids alive 24 h after treatment; for On plant (%): all aphids on the treated plant", "procedure": "For evaluating reproductive performance effects on green peach aphid (Myzus persicae Sulzer), each test unit consisted of a radish plant grown in a 6 cm×6 cm square pot infested with a mixed population (nymphs and adults) of green peach aphids from a laboratory-reared culture. Each plant was infested with about 100 aphids. Test solutions were prepared and sprayed on the test plants (2 plants per treatment) as described for TEST A. Treatments included Compound 1 at 100 and 500 ppm, Compound 2 at 4 and 6 ppm, and a control without test compound.\nAphids were kept on the treated plants for 24 hours, and then only adult aphids staying on the treated plant were transferred to untreated radish plants grown singly in a 6 cm×6 cm square pots. One test unit or one replicate consisted of a single adult aphid on a radish plant in a pot. The number of nymphs in each replicate was counted 4 and 6 days after treatment. At the higher concentration of each test compound a total of 45 replicates were used, and at the lower concentration of each test compound a total of 30 replicates were used. In addition, prior to transferring aphids singly to the untreated radish plants one day after treatment (1 DAT), the total number of aphids living and those remaining on the treated plant were counted.\nThe results are listed in Table B. Square-root transformation was done on the number of nymphs produced per adult (female) aphid, and the data were analyzed using analysis of variance (ANOVA) and Fisher's Least Significant Difference (LSD) tests for separation of means."}, "[3]": {"test_system": "housefly", "test": "Dose-finding test for sub-lethal dose on housefly", "type": "in vivo, Musca domestica", "settings": "probit analysis extrapolation from preliminary dose-response curves at 50, 100, 500 and 1000 ppm", "text": "(§2) The sub-lethal concentrations or doses used in the various tests for the specific pest species and populations tested in the context of the present invention were estimated from multiple-rate, dose-finding tests to determine the control rates and activity break rates. […] Therefore, depending on the target pest species, either the LC50 or a suitable concentration between LC50 and LC20 was selected as the sub-lethal dose. The specific procedures used to select the respective doses are described in each Test.\n(§3) The LC20 sub-lethal dose of Compound 2 on the housefly was estimated to be 2 ppm using probit analysis extrapolation based on the preliminary dose-response curves obtained at concentrations of 50, 100, 500 and 1000 ppm. Two treatments consisted of Compound 2 at 2 ppm and a control without test compound. Each treatment had 10 replicates."}, "[4]": {"test_system": "adult thrips", "test": "Previous study of adult thrips mortality", "type": "in vivo, Frankliniella occidentalis", "settings": "read-out: adult mortality", "text": "as §2\nThus, the sub-lethal concentration of Compound 2 was selected to be 10 ppm in the test treatments. Test solutions were prepared by diluting with water to the selected concentration. Treatments included Compound 2 at 10 ppm as well as a control without test compound."}, "[5]": {"test_system": "diamondback moth", "test": "Previous laboratory studies of diamondback moth mortality", "type": "in vivo", "settings": "Plutella xylostella, read-out: mortality of the diamondback moth (LC20)", "text": "as §2, §1"}, "[6]": {"test_system": "housefly, Musca domestica (L.)", "test": "Test A: reproductive performance of adult houseflies after spray at sub-lethal concentration", "type": "in vivo", "settings": "2 ppm spray of adults; totaled on the 8th day after treatment", "text": "For evaluating housefly, Musca domestica (L.), each test unit consisted of a pair of virgin adult female and male houseflies of similar age (±1 day). To obtain the adult flies used in the study, pupae of approximately the same age (±1 day) were separated by sex, and placed in separate containers until adults emerged.\nas §3\nAfter emergence, the adult houseflies were placed in a meshed cage and were sprayed with test solutions using a belt sprayer. Test solutions were applied using a compressed air-propelled (moving) belt sprayer equipped with an 8001E Tee Jet flat fan spray nozzle. The nozzles were positioned at about 20 cm above the test unit, and calibrated at 276 kPa to deliver volumes equivalent to 500 L/ha. […]\nObservations of the number of eggs laid per adult female were made daily for 7 days. The cotton wicks containing eggs were removed daily and counted, and then kept in a growth chamber at 26° C., 75% relative humidity and 16 hours of light per day to allow egg hatching and emergence of neonates. […]"}},
  "data": [
    {"smiles": "CNC(=O)c1cc(C#N)cc(C)c1NC(=O)c1cc(Br)nn1-c1ncccc1Cl", "note": "[Compound 2, 3-bromo-1-(3-chloro-2-pyridinyl)-N-[4-cyano-2-methyl-6-[(methylamino)-carbonyl]phenyl]-1H-pyrazole-5-carboxamide]", "values": [
      {"measurement": "No. of eggs per female moth", "setting": "[1]; 1 DAT", "result": 0},
      {"measurement": "No. of eggs per female moth", "setting": "[1]; 2 DAT", "result": 0.2},
      {"measurement": "living aphids that did not stay on the plant", "setting": "[2]; 4 and 6 ppm, one day after treatment", "result": "28-48%"},
      {"measurement": "Living (%)", "setting": "[2]; 4 ppm", "result": 97.6, "unit": "%"},
      {"measurement": "On plant (%)", "setting": "[2]; 4 ppm", "result": 72.0, "unit": "%"},
      {"measurement": "No. of nymphs (mean ± SE)", "setting": "[2]; 4 ppm, 6 DAT, per adult", "result": "6.1 ± 0.6", "unit": "a"},
      {"measurement": "Living (%)", "setting": "[2]; 6 ppm", "result": 82.3, "unit": "%"},
      {"measurement": "On plant (%)", "setting": "[2]; 6 ppm", "result": 51.1, "unit": "%"},
      {"measurement": "LC20 sub-lethal dose", "setting": "[3]", "result": 2, "unit": "ppm"},
      {"measurement": "mortality at 10 ppm", "setting": "[4]", "result": "< 50", "unit": "%"},
      {"measurement": "mortality at 10 ppm", "setting": "[5]", "result": "~20", "unit": "%"},
      {"measurement": "Mean number of neonates per female", "setting": "[6]", "result": 16.7}
    ]}
  ]
}
